Measurements published in US11535633B2, “Fused tricyclic heterocycle compounds and therapeutic uses thereof” (Jiangsu Hengrui Medicine Co., Ltd., priority 2018, dated 2022).
pEC50: −log10 of the molar value.

Experiments:
[1] = target: T1, STING in THP1-Dual KI-hSTING-R232 cells (Homo sapiens, UniProt Q86WV6, H232R); assay: Human THP1 reporter cell assay (IRF luciferase reporter); assay type: cell-based; conditions: 24 hours incubation
T1 construct: host or cells: THP1-Dual KI-hSTING-R232 cells (human monocytic THP-1 reporter line)
T1 sequence (Q86WV6 whole entry H232R): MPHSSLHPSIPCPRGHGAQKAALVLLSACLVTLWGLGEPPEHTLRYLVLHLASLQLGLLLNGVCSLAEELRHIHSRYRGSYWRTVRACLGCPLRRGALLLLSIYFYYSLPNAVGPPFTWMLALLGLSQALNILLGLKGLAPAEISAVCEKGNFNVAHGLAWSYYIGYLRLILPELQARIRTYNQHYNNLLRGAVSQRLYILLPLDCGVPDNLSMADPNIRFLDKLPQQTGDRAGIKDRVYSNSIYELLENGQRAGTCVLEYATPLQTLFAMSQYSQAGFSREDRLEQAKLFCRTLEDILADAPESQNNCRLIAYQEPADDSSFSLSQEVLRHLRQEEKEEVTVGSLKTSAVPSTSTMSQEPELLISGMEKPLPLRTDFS
Description: Test Example 2. Human THP1 Reporter Cell Assay
• 1. Human THP1-Dual KI-hSTING-R232 Cells (InvivoGen, Cat. #thpd-r232) • 2. QUANTI-LUC (InvivoGen, Cat. #rep-qlc2) • 3. Media for cell culture and compound dilution: RPMI with high glucose and glutamine (Genesee, Cat. #25-506), 10% fetal bovine serum (Life Technologies, Cat. #10082147), 25 mM HEPES (Genesee, Cat. #25-534), 100 μg/ml Normocin (InvivoGen, Cat. #ant-nr-2), 10 μg/ml blasticidin (InvivoGen, Cat. #ant-bl-05), 100 μg/ml Zeocin (InvivoGen, Cat. #ant-zn-5p) and Penicillin-Streptomycin (100×) (Life Technologies, Cat. #15140122) • 4. Infinite M1000 plate reader (TECAN) Experimental Procedure
Activation of STING in THP1-Dual KI-hSTING-R232 cells was determined by measuring the luminescence signal resulting from the expression of the IRF luciferase reporter gene. All reagent preparation and assay procedures were conducted according to the protocols provided by InvivoGen. In brief, test compounds and cells (1×10^5 cells per well) were dispensed into 96-well plates with a final volume per well of 150 μl. Plates were incubated in a humidified, 5% CO2 incubator at 37° C. for 24 hours. The expression level of the reporter gene was measured by transferring 20 μl of the supernatant to a non-transparent 96-well plate to which 50 μl of QUANTI-LUC was dispensed into each well. The resulting luminescence signal was immediately read using a TECAN plate reader. The background luminescence signal from media was subtracted. The fold induction effect of the luminescence signal at each compound concentration was determined relative to controls that lack compound treatment. The plot of fold induction effect versus the log of compound concentration was fit in GraphPad Prism with a 4-parameter concentration response equation to calculate EC50 and Emax.
Activation of STING in THP1 of the compounds in the present invention was determined by the above assay, and EC50 values are shown in the following table 2.

Human PBMC cells = assay: IFNβ secretion in human PBMC; assay type: cell-based; conditions: IFNβ in supernatant by ELISA, 5 hours incubation
Description: Test Example 3. IFNβ Secretion in Human PBMC
• 1. Human PBMC cells (STEMCELL Technologies) • 2. Lymphocyte Medium (Zenbio) • 3. Culture and compound dilution media: RPMI with high glucose and glutamine (Genesee, Cat. #25-506), 10% fetal bovine serum (Life Technologies, Cat. #10082147), 100 μg/ml Normocin (InvivoGen, Cat. #ant-nr-2) and Penicillin-Streptomycin (100×) (Life Technologies, Cat. #15140122) • 4. Human IFNβ Quantikine ELISA kit (R&D systems) • 5. Infinite M1000 plate reader (TECAN) Experimental Procedure
Cryopreserved peripheral blood human mononuclear cells (PBMCs) were rapidly thawed and resuspended in Lymphocyte Media and centrifuged at 500×g for 5 minutes. The supernatant was removed and the cell pellets were gently resuspended in cell culture and compound dilution media. Human PBMC cells were plated in a 96-well format at a concentration of 1.5×10^5 cells per well. The test compounds, at varying concentrations, or vehicle control (<0.3% DMSO) were mixed with the cells giving a final volume of 150 μl per well. The plates were incubated for 5 hours in a humidified, 5% CO2 incubator at 37° C. After incubation, the human IFNβ in the supernatant and the IFNβ standard controls were measured using human IFNβ Quantikine ELISA kit according to the manufacturer's protocol. The absorbance at 450 nm was measured with Infinite M1000 plate reader and corrected by background reading at 540 nm of each well. The amount of […] based on the standard curves. The plot of IFNβ concentration versus the log of compound concentration was fit in GraphPad Prism with a 4-parameter concentration response equation to calculate EC50 and Emax.

[2] = target: T2, hSTING c-terminal domain (purified hSTING aa154-342) (Homo sapiens, UniProt Q86WV6); assay: Thermal shift assay for measuring the relative binding affinity to hSTING c-terminal domain; conditions: Tm of sample minus mean Tm of negative control (buffer, 2% DMSO), SYPRO Orange
T2 construct: Purified hSTING (aa154-342)
T2 sequence (Q86WV6 154-342): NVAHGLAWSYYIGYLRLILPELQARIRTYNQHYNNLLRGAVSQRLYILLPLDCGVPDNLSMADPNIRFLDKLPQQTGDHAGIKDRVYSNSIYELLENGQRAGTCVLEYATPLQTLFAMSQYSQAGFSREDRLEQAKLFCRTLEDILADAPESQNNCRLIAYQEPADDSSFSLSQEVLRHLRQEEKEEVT
Description: Test Example 1. Thermal Shift Assay for Measuring the Relative Binding Affinity to hSTING c-Terminal Domain
From each of the 10 mM stock solutions of compounds in DMSO, dilutions are made to create samples with three concentrations 10 mM, 5 mM and 2.5 mM. From these dilutions a final 50 fold dilution is made into assay buffer, giving concentrations of 200 μM, 100 μM, and 50 μM. From each of the buffer dilutions, 5 μL is added to the 384 well assay plate. A positive control is setup with cGAMP using the same dilution scheme as the ligands. A baseline thermal shift for the negative control is determined using buffer and 2% DMSO.
An aliquot of protein is thawed on ice and SYPRO orange reagent is brought to room temperature. The 5000× SYPRO orange stock is diluted in assay buffer to a concentration of 10×. Protein is diluted to a concentration of 10 μM in the prepared buffer/dye solution. Five micro-liters of protein/buffer/dye solution is added to each of the sample and control wells, and the plate is sealed with the provided films. The plate is centrifuged for 5 min at 20° C. at 1000 rpm.
On the Light Cycler instrument, measurements are made over a temperature gradient from 20° C. to 99° C. at 0.07° C./s and data acquisitions collected at a rate of 8/° C. is used to measure the change in fluorescence as a function of temperature. Data analysis is performed using the Roche Light Cycler Software to determine the melting temperature (Tm ° C.) of each sample. A mean Tm ° C. for the negative control is calculated and subtracted from each of the samples to generate the ΔTm ° C. values for each of the ligands.
The relative binding affinity to hSTING c-terminal domain of the compounds of the present invention was determined by the above assay, and ΔTm ° C. values are shown in the following table 1.

pEC50 [1]: 7.52 | ΔTm at 100 µM [2]: 10.7 °C
Structure (SMILES): CCn1nc(C)cc1C(=O)Nc1nc2cc(C(N)=O)cc(OC)c2n1CCC[C@H]1COc2cc(C(N)=O)cc3nc(NC(=O)c4cc(C)nn4CC)n1c23 [Example 13, (S)-3-(3-(5-carbamoyl-2-(1-ethyl-3-methyl-1H-pyrazole-5-carboxamido)-7-methoxy-1H-benzo[d]imidazol-1-yl)propyl)-2-(1-ethyl-3-methyl-1H-pyrazole-5-carboxamido)-3,4-dihydro-5-oxa-1,2a-diazaacenaphthylene-7-carboxamide]
pEC50 (Human PBMC cells): 7.00
